Values quoted from earlier work in PMC3532212 (PLoS ONE, 2012).

Assays:
disease-relevant model = system: disease-relevant model; set-up: method as in PMID 15642767; settings: cited from earlier work
Wistar rats = system: Wistar rats; set-up: method as in PMID 17006328; settings: cited from earlier work
anesthetized guinea pigs = system: anesthetized guinea pigs; set-up: method as in PMID 15642767; settings: i.v. bolus, highest tested dose 0.03 mg/kg/d; cited from earlier work
mice = system: mice; set-up: method as in PMID 14747617; settings: wild type mice; cited from earlier work
S1P1 receptor = system: S1P1 receptor; set-up: method as in PMID 15975516; settings: cited from earlier work
[1] = system: FTY720-induced bradycardia; set-up: method as in PMID 20097776; settings: in vivo; cited from earlier work

## NC(CO)(CO)CCc1ccc(Sc2cccc(OCc3ccccc3)c2)cc1Cl [KRP-203]
disease-relevant model
  efficacious dose in a disease-relevant model: 0.1 to 1.0 mg/kg/day
Wistar rats; 0.03 mg/kg
  effect on heart rate: no effect on heart rate
Wistar rats; 0.1 and 0.3 mg/kg
  acute bradycardia, heart rate below baseline: ~150 beats/min
Anesthetized guinea pigs
  effect on heart rate: no effect on heart rate

## CCCCCCCCCCCCC/C=C/[C@@H](O)[C@@H](N)COP(=O)(O)O [S1P, Sphingosine-1-phospate]
mice
  effect on heart rate: reductions in heart rate

## FC(F)(F)c1cccc(-c2noc(-c3cc(-c4ccccc4)c(C(F)(F)F)s3)n2)c1 [SEW2871]
S1P1 receptor
  S1P1 receptor internalization: elicit S1P1 receptor internalization

## CC(C)(C)C(=O)C(=Nc1ccc(Cl)cc1)NNc1ccc(Cl)cc1 [TY-52156]
[1]
  effect on FTY720-induced bradycardia: partially inhibit
